Data from patent US5011840A, “Imidazolidinedione derivatives in diabetes treatment” (Pfizer Inc., priority 1989, dated 1991).

What was measured:
[1] = test system: sorbitol levels in nerve and lens of diabetic subjects; assay: Lowering of sorbitol levels in sciatic/peripheral nerve and lens of diabetic subjects (general statement); format: in vivo; settings: qualitative statement
Description: (§1) The activity of the compounds of the present invention, as agents for the control of chronic diabetic complications, is determined by their ability to successfully pass one or more of the following standard biological or pharmacological tests, viz., (1) measuring their ability to inhibit the enzyme activity of isolated aldose reductase; (2) measuring their ability to reduce or inhibit sorbitol accumulation in the sciatic nerve and lens of acutely streptozotocinized (i.e., diabetic) rats; (3) measuring their ability to reverse already-elevated sorbitol levels in the sciatic nerve and lens of chronic streptozotocin-induced diabetic rats; (4) measuring their ability to prevent or inhibit galactitol formation in the lens of acutely galactosemic rats, and (5) measuring their ability to delay cataract formation and reduce the severity of lens opacities in chronic galactosemic rats.

aldose reductase = target: T1, aldose reductase (Homo sapiens, UniProt P15121); assay: Inhibition of aldose reductase enzyme activity (procedure of Hayman et al. as modified by Sestanj et al.); format: biochemical; settings: for inhibition at 10 µM: 10^-5 M; for inhibition at 1 µM: 10^-6 M; for inhibition at 0.1 µM: 10^-7 M; for aldose reductase inhibition (in words): qualitative statement
T1 construct: partially purified aldose reductase enzyme obtained from human placenta; from tissue; host or cells: human placenta
Description: as §1
The following 5-substituted imidzolidinedione derivatives of Examples 1 and 4, respectively, were tested for their ability to reduce or inhibit aldose reductase enzyme activity via the procedure of S. Hayman et al., as described in the Journal of Biological Chemistry, Vol. 240, p. 877 (1965) and as modified by K. Sestanj et al. in U.S. Pat. No. 3,821,383. In each case, the substrate employed was partially purified aldose reductase enzyme obtained from human placenta.

[2] = test system: sorbitol accumulation in the lens; assay: Inhibition of sorbitol accumulation in the lens of streptozotocinized (diabetic) rats; format: in vivo, rat
From the text: (§2) As previously indicated, the 5-substituted imidazolidinedione compounds of this inventon are readily adapted to therapeutic use as aldose reductase inhibitors for the control of certain chronic diabetic complications, in view of their ability to reduce lens and peripheral nerve sorbitol levels in diabetic subjects to a statistically significant degree. […] Furthermore, the herein described compounds of this invention can be administered by either the oral, topical or parenteral routes of administration. […]
as §1, with “rats. […]” for “rats.”

[3] = test system: sorbitol accumulation in the sciatic nerve; assay: Inhibition of sorbitol accumulation in the sciatic nerve of streptozotocinized (diabetic) rats; format: in vivo, rat
From the text: as §2
as §1, with “rats. […]” for “rats.”

[4] = partially purified enzyme from human placenta, read-out: Percent Inhibition of aldose reductase activity
[5] = 25 mg./kg. orally at 4, 8 and 24 hours after streptozotocin, measured at 27 hours, vs untreated control
[6] = diabetic rats, oral, 25 mg./kg.

inhibition at 100 µM (aldose reductase; 10^-4 M, partially purified enzyme from human placenta, read-out: Percent Inhibition of aldose reductase activity) [%]	inhibition at 10 µM (aldose reductase; [4]) [%]	inhibition at 1 µM (aldose reductase; [4]) [%]	inhibition at 0.1 µM (aldose reductase; [4]) [%]	aldose reductase inhibition (in words) (aldose reductase)	inhibition at 0.01 µM (aldose reductase; 10^-8 M, partially purified enzyme from human placenta, read-out: Percent Inhibition of aldose reductase activity) [%]	Structure (SMILES)	lowering sorbitol levels in the sciatic nerve and lens of diabetic subjects (in words) [1]	reduction in the accumulated sorbitol levels in the lens [2, 5] [%]	inhibition of the formation of sorbitol levels in the lens (in words) [2, 6]	reduction in the accumulated sorbitol levels in the sciatic nerve [3, 5] [%]	inhibition of the formation of sorbitol levels in the sciatic nerve (in words) [3, 6]
100	59	17	6	potent aldose reductase inhibitors	–	O=C1NC(=O)C(N2C(=O)c3cccc4cccc(c34)C2=O)N1 (stereo not shown) [Example 1, 5-naphthalimido-imidazolidine-2,4-dione]	effective in lowering sorbitol levels	–	–	–	–
–	91	86	72	potent aldose reductase inhibitors	20	O=C1NC(=O)C(c2nn(Cc3ccc(Br)cc3F)c(=O)c3ccccc23)N1 (stereo not shown) [Example 4, 5-[3-(4'-bromo-2'-fluorobenzyl)-3,4-dihydro-4-oxophthalazin-1-yl]-imidazolidine-2,4-dione]	effective in lowering sorbitol levels	36	to a significantly high degree	61	to a significantly high degree
